The values that follow are results of earlier work, collected in US20230023289A1, “ANTHRANILAMIDE COMPOSITION” (priority 2019, published 2023).

For the data set, the target named is insect ryanodine receptors (Drosophila melanogaster, UniProt Q24498). The conditions noted are these: in words.
insect ryanodine receptors, sequence (Q24498 whole entry): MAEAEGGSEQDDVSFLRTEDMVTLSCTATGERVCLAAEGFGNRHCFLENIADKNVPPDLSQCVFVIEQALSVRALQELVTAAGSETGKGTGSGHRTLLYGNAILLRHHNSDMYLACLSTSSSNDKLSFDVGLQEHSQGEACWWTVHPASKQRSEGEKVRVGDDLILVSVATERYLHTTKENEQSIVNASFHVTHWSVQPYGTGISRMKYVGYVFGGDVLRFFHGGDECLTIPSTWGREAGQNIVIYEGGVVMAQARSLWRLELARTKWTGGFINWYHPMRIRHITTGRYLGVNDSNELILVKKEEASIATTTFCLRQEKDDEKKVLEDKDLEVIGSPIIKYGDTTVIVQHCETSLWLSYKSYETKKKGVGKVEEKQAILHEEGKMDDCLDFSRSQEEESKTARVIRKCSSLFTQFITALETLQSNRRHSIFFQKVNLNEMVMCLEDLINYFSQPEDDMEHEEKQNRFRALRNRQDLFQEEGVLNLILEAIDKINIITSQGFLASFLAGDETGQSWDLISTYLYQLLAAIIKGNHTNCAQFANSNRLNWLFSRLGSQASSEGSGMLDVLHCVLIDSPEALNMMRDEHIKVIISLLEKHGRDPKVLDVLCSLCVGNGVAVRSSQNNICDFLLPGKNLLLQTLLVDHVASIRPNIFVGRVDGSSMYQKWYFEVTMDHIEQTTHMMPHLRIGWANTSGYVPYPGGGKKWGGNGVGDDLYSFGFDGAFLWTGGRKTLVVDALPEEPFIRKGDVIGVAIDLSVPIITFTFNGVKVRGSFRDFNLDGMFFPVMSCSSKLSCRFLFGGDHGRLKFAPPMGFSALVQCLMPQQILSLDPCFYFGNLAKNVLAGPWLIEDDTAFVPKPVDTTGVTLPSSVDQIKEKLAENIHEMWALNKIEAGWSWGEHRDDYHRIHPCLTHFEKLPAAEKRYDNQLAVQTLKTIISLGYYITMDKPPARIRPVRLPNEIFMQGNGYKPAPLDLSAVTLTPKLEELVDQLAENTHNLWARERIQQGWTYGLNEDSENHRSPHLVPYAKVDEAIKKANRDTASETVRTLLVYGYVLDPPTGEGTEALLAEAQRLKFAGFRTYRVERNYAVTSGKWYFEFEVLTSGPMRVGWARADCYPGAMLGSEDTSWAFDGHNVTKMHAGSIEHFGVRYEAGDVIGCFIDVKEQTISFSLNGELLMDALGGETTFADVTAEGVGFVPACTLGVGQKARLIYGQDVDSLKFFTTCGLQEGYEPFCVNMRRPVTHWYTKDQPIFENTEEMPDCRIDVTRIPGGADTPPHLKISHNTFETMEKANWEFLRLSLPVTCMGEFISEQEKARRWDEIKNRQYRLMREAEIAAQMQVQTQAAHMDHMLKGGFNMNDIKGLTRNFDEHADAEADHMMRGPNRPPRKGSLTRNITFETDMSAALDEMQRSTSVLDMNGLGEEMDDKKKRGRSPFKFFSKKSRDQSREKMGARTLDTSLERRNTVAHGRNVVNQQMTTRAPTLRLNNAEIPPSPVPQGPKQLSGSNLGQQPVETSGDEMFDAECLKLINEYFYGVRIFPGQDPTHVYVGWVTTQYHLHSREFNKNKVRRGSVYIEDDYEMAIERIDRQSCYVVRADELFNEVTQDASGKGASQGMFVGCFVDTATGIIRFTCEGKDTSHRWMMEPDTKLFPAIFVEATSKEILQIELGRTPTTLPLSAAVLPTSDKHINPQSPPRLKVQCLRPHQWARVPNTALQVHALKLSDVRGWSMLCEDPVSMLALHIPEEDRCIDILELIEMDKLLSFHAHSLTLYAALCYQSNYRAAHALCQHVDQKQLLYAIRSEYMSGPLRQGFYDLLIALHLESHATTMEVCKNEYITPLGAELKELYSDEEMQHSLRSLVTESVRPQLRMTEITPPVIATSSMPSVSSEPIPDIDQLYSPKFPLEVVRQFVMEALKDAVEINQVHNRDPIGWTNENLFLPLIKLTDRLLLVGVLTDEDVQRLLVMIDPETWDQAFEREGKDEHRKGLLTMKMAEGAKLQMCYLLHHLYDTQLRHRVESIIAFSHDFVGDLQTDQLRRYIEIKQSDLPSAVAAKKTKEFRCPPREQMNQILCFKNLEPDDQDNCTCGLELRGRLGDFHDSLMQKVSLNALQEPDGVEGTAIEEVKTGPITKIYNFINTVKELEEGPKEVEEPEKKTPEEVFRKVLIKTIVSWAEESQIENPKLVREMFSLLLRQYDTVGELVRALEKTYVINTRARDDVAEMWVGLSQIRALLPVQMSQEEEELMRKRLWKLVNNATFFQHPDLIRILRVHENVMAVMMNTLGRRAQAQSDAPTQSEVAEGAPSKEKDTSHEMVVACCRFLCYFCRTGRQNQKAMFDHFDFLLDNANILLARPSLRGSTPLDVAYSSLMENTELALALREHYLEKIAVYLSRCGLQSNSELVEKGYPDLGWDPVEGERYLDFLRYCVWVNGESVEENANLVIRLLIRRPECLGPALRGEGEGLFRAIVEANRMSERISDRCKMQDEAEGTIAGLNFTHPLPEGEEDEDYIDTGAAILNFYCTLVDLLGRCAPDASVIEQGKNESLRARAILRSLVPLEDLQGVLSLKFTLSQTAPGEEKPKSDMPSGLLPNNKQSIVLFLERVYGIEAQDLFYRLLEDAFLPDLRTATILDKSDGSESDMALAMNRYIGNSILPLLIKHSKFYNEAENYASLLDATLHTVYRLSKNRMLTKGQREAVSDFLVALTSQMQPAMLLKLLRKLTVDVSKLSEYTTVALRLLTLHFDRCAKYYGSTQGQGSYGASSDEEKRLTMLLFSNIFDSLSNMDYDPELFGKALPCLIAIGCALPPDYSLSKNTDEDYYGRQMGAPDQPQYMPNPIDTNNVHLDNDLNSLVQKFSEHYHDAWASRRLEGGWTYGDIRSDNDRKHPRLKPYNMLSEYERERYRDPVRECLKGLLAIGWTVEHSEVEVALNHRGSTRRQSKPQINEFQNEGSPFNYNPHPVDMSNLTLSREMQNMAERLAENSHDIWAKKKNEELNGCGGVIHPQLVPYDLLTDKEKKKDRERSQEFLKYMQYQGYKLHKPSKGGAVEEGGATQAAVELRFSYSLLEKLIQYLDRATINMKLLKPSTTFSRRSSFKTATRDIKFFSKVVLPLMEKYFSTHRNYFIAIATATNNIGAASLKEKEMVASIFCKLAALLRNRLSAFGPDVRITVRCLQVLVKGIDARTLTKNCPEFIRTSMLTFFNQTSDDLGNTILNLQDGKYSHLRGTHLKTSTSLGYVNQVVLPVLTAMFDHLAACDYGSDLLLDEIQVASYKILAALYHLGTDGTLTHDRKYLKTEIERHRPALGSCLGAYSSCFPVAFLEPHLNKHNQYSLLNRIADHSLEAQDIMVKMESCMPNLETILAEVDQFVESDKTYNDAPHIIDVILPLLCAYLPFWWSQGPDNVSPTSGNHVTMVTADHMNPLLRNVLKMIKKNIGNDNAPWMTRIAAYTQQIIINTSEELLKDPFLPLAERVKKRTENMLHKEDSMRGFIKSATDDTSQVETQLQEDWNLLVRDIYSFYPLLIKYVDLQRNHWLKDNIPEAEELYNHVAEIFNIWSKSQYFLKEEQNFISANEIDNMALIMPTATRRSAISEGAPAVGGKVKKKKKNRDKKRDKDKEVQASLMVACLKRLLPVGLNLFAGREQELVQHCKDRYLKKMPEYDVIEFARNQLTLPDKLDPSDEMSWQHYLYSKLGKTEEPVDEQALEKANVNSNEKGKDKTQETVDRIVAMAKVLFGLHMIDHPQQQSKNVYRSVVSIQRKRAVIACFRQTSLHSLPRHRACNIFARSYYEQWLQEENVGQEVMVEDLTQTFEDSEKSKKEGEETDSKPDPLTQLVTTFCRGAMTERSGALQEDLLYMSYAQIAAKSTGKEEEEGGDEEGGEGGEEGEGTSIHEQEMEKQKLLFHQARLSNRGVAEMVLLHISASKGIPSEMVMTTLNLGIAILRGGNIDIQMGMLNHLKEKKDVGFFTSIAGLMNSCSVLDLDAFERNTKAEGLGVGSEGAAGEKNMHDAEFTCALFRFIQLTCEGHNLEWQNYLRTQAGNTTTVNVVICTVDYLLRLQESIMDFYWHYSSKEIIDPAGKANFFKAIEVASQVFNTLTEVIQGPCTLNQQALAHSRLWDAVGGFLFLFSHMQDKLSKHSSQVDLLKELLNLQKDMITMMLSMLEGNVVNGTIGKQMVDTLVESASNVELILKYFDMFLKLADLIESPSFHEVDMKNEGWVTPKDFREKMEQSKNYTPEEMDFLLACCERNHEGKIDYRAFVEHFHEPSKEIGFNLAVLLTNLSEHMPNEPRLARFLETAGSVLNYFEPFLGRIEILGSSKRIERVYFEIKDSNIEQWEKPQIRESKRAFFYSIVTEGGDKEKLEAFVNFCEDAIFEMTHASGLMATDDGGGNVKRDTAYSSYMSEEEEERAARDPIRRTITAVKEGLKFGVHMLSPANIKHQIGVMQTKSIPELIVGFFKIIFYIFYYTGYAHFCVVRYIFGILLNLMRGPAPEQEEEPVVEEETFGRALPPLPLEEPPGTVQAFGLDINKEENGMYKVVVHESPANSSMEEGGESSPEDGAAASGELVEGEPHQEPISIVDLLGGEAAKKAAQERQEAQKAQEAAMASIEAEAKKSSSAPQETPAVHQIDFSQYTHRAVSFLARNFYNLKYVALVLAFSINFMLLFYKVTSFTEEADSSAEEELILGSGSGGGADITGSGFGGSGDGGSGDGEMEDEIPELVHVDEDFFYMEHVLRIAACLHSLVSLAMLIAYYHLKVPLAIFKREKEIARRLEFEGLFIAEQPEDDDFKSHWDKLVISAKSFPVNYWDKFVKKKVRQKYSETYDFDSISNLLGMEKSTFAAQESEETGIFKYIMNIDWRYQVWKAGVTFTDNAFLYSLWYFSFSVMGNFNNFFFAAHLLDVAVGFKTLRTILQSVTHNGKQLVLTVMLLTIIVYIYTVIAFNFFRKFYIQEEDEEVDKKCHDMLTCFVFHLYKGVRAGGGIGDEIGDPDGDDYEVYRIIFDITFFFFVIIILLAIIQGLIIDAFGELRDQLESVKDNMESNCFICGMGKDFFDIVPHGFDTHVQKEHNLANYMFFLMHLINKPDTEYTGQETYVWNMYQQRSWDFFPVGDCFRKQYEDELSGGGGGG

Regarding `CNC(=O)c1cc(Cl)cc(C)c1NC(=O)c1cc(Br)nn1-c1ncccc1Cl` [chlorantraniliprole, 5-bromo-N-[4-chloro-2-methyl-6-(methylcarbamoyl)phenyl]-2-(3-chloropyridin-2-yl)pyrazole-3-carboxamide], the “Selectivity for insect ryanodine receptors over mammalian ryanodine receptors” value was “excellent differential selectivity”.
